Calls of active or inactive are those of the source.
How the values were obtained:
[1] = molecular target: Heat shock protein HSP 90-alpha (Homo sapiens, UniProt P07900); assay type: functional, organism-based
CHO = assay: cytotoxicity in TLR9-MyD88 CHO cells, dose response, cytotoxicity control for TLR9-MyD88 binding inhibitor project, cell-based, luminescence (AID 588339); assay type: functional, hamster; settings: Cricetulus griseus;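 further: CHO cells stably coexpressing TLR9 and MyD88 fusions from primary screen; compound exposure lasted 48 hours before viability readout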
[2] = nonselective inhibitors of cellular cAMP signaling, dose response, counter-screen for MC4R biased antagonist project, cell-based, TR-FRET cAMP detection (AID 602305); assay type: functional;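 further: U2OS cells stimulated with forskolin near its EC80 as the cAMP inducer; potency is for inhibition of forskolin-stimulated cAMP signaling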
Beta Lactamase = Beta Lactamase (Pseudomonas aeruginosa, UniProt Q932Y6); assay: beta-lactamase reporter inhibitor potency, dose response, artefact control for TLR9-MyD88 binding inhibitor project, BLA reporter cells, FRET fluorescence (AID 588341); assay type: cell-based;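 further: cell based assay in CHO-K1 cells stably expressing beta-lactamase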
[3] = molecular target: Glucose-6-phosphate 1-dehydrogenase (Homo sapiens, UniProt P11413); assay: human G6PD enzyme inhibitors, dose response, selectivity assay for P. falciparum G6PD inhibitor project, biochemical, fluorescence (AID 504792); assay type: functional
[4] = tested on: Streptococcus sp. 'group A'; assay: growth inhibition of control SK(-) GAS strain, dose response, counter-screen for streptokinase expression inhibitor project, luminescence, kanamycin, BacTiterGlo, confirmation (AID 1900); assay type: functional, organism-based
[5] = inhibitors of intracellular T. cruzi replication, confirmation, NIH3T3 host cells, beta-gal luminescence (AID 2044); assay type: functional, cell-based;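 further: intracellular parasites grown in NIH/3T3 mouse fibroblasts as host cells; luminescent beta-galactosidase reporter signal from transgenic T. cruzi replicating inside host cells; inhibitors lower the luminescence signal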
Melanocortin receptor 4 = Melanocortin receptor 4 (Homo sapiens, UniProt P32245); assay: MC4R antagonist potency on cAMP, dose response, cell-based, TR-FRET, biased antagonists (AID 602298); assay type: functional;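 further: antagonist potency against agonist-stimulated cAMP production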
[6] = cytotoxicity toward NIH3T3 fibroblasts, dose response, counter-screen, cell-based, ATP luminescence, mouse fibroblasts (AID 2010); assay type: functional;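 further: cells exposed to compound for about 90 hours before reading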
Streptokinase A = molecular target: T1, Streptokinase A (Streptococcus pyogenes serotype M1, UniProt P10520); assay: S. pyogenes streptokinase expression inhibitors, potency, dose response, plasminogen activation absorbance, OD405 (AID 1914); assay type: functional, Streptococcus pyogenes M1 GAS;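 further: secreted streptokinase activity via plasminogen activation per viability signal from cell pellet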
T1 sequence (P10520 whole entry): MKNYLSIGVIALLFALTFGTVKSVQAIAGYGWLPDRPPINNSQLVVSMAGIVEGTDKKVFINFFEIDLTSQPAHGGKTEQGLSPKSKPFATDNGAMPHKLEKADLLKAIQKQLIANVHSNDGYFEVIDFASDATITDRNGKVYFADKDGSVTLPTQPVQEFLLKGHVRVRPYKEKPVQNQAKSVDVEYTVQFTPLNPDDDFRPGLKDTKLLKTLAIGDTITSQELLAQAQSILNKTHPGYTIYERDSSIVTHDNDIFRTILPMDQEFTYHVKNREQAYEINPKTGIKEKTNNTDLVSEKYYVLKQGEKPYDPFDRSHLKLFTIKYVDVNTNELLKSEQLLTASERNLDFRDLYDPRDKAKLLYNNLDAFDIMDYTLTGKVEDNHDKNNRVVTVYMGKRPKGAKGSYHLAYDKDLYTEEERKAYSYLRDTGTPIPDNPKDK

Streptococcus = assay: Group A Streptococcus viability loss, dose response, counter-screen for streptokinase expression inhibitor project, luminescence, BacTiterGlo (AID 1915); assay type: functional, organism-based;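 further: potency for reduction of bacterial viability or growth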
cells = assay type: functional
[7] = THP-1 cell cytotoxicity, dose response, cytotoxicity control, set 3 (AID 504852); assay type: functional; settings: Mycobacterium tuberculosis
[8] = HepG2 cell cytotoxicity, cytotoxicity control, set 4 (AID 504910); assay type: functional; settings: Mycobacterium tuberculosis
[9] = HepG2 cell cytotoxicity, dose response, cytotoxicity control, set 3 (AID 504853); assay type: functional; settings: Mycobacterium tuberculosis
[10] = Vero cell cytotoxicity, cytotoxicity control for M. tuberculosis inhibitor project, purified and synthesized samples, set 3 (AID 504684); assay type: functional
[11] = THP-1 cell cytotoxicity, cytotoxicity control, set 4 (AID 504911); assay type: functional; settings: Mycobacterium tuberculosis
[12] = A Cell Based Secondary Assay to Explore Cytotoxicity in HepG2 Cells of Compounds that Modulate Mycobacterium tuberculosis in Media Containing Glycerol versus Media without Glycerol (2).; assay type: functional
[13] = A Cell Based Secondary Assay to Explore Cytotoxicity in THP-1 Cells of Compounds that Modulate Mycobacterium tuberculosis in Media Containing Glycerol versus Media without Glycerol (2).; assay type: functional
BJ [14] = assay: cytotoxicity toward BJ-TERT fibroblasts, dose response, cell-based, RAS-independent, luminescence (AID 1933); assay type: functional; settings: Homo sapiens
BJ [15] = assay: cells; assay type: functional, cell-based; settings: Homo sapiens
[16] = cytotoxicity toward DRD oncogenic fibroblasts, dose response, cell-based, non-viral oncogenic, luminescence (AID 1934); assay type: functional; settings: Homo sapiens
[17] = cytotoxicity in HEK-293T cells, dose response, cytotoxicity control for TCR NF-kB inhibitor project, luminescence, T-cell screen hits (AID 489026); assay type: functional, cell-based;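 further: cells exposed to compound about 14 hours before the viability readout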
[18] = inhibitors of firefly luciferase expression or activity, dose response, H4 neuroglioma cells, luminescence (AID 1990); assay type: functional, cell-based
BJ [19] = assay: cytotoxicity toward BJ-TERT-LT-ST fibroblasts, dose response, cell-based, RAS-independent, luminescence (AID 1935); assay type: functional; settings: Homo sapiens;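 further: BJ fibroblasts immortalized with TERT plus LT and ST oncogenes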
[20] = molecular target: T2, High affinity choline transporter 1 (Homo sapiens, UniProt Q9GZV3); assay: CHT activators, dose response, cell-based, 10-point CRC, membrane potential dye (AID 602376); assay type: functional
T2 sequence (Q9GZV3 whole entry): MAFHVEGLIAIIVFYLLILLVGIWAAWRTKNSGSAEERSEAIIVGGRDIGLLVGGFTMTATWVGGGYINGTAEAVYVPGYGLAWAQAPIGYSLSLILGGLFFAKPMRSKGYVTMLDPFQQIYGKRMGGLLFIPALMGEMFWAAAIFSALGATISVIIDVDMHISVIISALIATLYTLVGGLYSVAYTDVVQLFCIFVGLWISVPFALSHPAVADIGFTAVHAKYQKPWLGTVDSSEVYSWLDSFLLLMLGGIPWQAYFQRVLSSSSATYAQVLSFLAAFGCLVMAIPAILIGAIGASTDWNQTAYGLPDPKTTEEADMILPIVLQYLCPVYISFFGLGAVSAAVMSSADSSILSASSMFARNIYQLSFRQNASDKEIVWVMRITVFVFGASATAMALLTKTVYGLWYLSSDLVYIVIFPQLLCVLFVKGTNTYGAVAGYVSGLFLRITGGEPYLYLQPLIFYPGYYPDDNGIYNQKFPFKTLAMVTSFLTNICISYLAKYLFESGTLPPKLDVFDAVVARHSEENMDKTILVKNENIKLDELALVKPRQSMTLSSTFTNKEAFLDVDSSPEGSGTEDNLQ

[21] = inhibitors of SNCA 5'UTR-driven reporter translation, confirmation, H4 neuroglioma cells, luminescence (AID 1988); assay type: functional, cell-based
[22] = Luminescence Cell-Based Dose Response HTS to Identify Inhibitors of 5'UTR Stem-Loop Driven Prion Protein mRNA Translation in H4 Neuroglioblastoma Cells. [Related pubchem assays: 1827 (Project Summary), 1813 (Primary HTS)]; assay type: functional

Sequence of Melanocortin receptor 4 (P32245 whole entry): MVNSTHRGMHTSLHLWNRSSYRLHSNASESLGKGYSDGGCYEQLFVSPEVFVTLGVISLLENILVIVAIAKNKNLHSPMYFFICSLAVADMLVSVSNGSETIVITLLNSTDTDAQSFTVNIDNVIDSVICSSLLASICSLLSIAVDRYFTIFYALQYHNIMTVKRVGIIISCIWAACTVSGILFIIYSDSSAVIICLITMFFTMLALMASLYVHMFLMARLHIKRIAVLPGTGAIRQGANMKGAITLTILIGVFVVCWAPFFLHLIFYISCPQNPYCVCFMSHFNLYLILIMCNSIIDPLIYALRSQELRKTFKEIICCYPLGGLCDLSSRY
Sequence of Beta Lactamase (Q932Y6 whole entry): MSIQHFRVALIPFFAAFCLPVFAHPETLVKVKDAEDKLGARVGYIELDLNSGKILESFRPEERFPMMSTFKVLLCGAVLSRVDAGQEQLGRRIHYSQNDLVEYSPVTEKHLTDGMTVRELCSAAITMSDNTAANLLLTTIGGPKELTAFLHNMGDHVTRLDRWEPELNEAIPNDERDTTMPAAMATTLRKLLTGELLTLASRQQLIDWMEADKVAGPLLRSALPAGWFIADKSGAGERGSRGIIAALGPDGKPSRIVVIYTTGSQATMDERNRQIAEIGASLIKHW
Sequence of Glucose-6-phosphate 1-dehydrogenase (P11413 whole entry): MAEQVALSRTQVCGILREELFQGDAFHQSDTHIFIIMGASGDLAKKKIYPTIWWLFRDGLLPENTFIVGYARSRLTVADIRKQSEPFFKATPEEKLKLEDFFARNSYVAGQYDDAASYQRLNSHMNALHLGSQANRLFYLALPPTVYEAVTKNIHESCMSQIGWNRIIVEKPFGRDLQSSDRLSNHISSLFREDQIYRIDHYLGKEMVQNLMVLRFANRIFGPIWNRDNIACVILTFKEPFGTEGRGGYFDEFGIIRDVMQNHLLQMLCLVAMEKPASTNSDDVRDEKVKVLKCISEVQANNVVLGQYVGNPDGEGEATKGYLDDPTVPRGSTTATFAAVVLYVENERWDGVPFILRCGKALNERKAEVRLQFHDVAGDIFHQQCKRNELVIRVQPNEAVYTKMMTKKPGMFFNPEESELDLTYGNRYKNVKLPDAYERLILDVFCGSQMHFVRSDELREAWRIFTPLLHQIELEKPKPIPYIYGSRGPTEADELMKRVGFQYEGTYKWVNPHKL

Cc1ccc(NC(=O)c2cc(N3C(=O)C=CC3=O)ccc2N2CCOCC2)cc1Cl
inactive: IC50 [2] 28.6 µM | IC50 [3] 48.1 µM
active: AC50 [1] < 0.195 µM | IC50 (CHO) 1.7 µM | IC50 (Beta Lactamase) 9.48 µM | EC50 [4] 12 µM | EC50 [5] 2.01 µM | IC50 (Melanocortin receptor 4) 8.43 µM | EC50 [6] 6.37 µM | EC50 (Streptokinase A) 6.68 µM | EC50 (Streptococcus) 13.4 µM

Nc1c(C(=O)NC2CCCCC2)nsc1C(=O)OCC(=O)NC1CCCCC1
active: IC50 (cells) 1.88 µM | CC50 [7] > 100 µM | CC50 [8] > 50 µM | CC50 [9] > 50 µM | CC50 [10] > 100 µM | CC50 [11] > 100 µM | CC50 [12] > 50 µM | CC50 [13] > 100 µM

COc1ccc(OC)c(NS(=O)(=O)c2ccc(N3CCCC3=O)cc2)c1
inconclusive: EC50 (BJ [15]) 27.9 µM | EC50 (BJ [19]) 1.26 µM
inactive: IC50 [17] > 80 µM
active: EC50 (BJ [14]) 0.812 µM | EC50 [16] 0.463 µM | EC50 [18] 3.37 µM | EC50 [20] 22.1 µM | EC50 [21] 0.247 µM | EC50 [22] 7.75 µM
